Results published in patent US11357783B2 (CAREGEN CO., LTD., priority 2016, dated 2022).

Experiments:
[1] = Solubility test in distilled water; format: physicochemical; details: 10 mg/ml
5α reductase = assay: Effect on 5α reductase activity: testosterone reacted with liver cell extracts, testosterone and DHT by HPLC; format: biochemical; details: 1 hour at 37° C.
Procedure: The reactant of putting the liver cell extracts in testosterone and reacting it for 1 hour at 37° C. is the control. After the reaction is completed, the amount of testosterone and DHT were confirmed through HPLC. The HPLC analysis was carried out under the following conditions. • C18 column • UV 240 nm • flow rate: 1 mi/minute • mobile phase: A: 0.1% Formic acid in water • B: 0.1% Formic acid in acetonitrile • gradient: 0 min B 5%˜30 min B 80%

In the case of `CC(C)(C)NC(=O)[C@H]1CC[C@H]2[C@@H]3CC[C@H]4NC(=O)C=C[C@]4(C)[C@H]3CC[C@]12C` [finasteride, N-(1,1-dimethylethyl)-3-oxo-(5α,17β)-4-azaandrost-1-ene-17-carboxamide], the solubility in water [1] is reported as “hardly dissolved in water”, the “concentration of DHT compared with the control” value (5α reductase) is reported as “decreased” and the “concentration of testosterone compared with the control” value (5α reductase) is reported as “increased”.
